Structures are written as SMILES.

For experiment [1], the target named is T1, rat adrenergic α1B receptor (Rattus norvegicus, UniProt P15823).
T1 construct: rat adrenergic α1B receptor obtained from Wistar Rat liver; from tissue; host or cells: Wistar rat liver
T1 sequence (P15823 1-515): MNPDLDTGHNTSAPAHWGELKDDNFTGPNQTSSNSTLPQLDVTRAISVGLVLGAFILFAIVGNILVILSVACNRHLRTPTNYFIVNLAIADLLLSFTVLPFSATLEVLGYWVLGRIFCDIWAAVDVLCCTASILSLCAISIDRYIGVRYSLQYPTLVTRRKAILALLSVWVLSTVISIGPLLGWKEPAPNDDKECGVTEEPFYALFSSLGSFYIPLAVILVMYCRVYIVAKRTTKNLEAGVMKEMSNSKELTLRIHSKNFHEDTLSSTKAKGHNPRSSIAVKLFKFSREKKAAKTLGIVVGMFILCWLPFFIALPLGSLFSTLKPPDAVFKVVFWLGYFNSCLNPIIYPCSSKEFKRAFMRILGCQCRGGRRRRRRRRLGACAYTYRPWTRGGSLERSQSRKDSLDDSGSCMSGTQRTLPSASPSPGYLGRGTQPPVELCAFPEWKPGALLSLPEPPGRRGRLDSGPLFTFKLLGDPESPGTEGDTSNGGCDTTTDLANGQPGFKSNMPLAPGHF
Put plainly: Radioligand binding, adrenergic α1B receptor ([3H]Prazosin). To be noted: 0.1 μM compound, Wistar rat liver, read-out: Percentage inhibition of ligand binding, Adrenergic α1B. As for the experimental part:
To evaluate in radioligand binding assays the activity of compounds, rat adrenergic α1B receptor obtained from Wistar Rat liver (Garcia-S' ainz, J. et al, Biochem. Biophys. Res. Commun. 186:760, 1992; Michel, A. et al, Br. J. Pharmacol. 98:883, 1989) in a modified Tris-HCl buffer (50 mM Tris-HCl buffer, pH 7.4, 0.5 mM EDTA) was used. Compounds were incubated with 0.25 nM [^3H]Prazosin for 60 min at […]. Non-specific binding was estimated in the presence of 10 μM phentolamine. Receptor proteins were filtered and washed, the filters were then counted to determine [^3H]Prazosin specifically bound. Compounds were screened at 1 μM or lower, using 1% DMSO as vehicle. Compounds were tested in this biochemical assay and percent inhibition of specific binding was determined. Biochemical assay results are presented as the percent inhibition of specific binding in Table 2.

For experiment [2], the target named is T2, human recombinant adrenergic α1D receptor (Homo sapiens, UniProt P25100).
T2 construct: expressed in transfected cells; host or cells: HEK-293
T2 sequence (P25100 1-572): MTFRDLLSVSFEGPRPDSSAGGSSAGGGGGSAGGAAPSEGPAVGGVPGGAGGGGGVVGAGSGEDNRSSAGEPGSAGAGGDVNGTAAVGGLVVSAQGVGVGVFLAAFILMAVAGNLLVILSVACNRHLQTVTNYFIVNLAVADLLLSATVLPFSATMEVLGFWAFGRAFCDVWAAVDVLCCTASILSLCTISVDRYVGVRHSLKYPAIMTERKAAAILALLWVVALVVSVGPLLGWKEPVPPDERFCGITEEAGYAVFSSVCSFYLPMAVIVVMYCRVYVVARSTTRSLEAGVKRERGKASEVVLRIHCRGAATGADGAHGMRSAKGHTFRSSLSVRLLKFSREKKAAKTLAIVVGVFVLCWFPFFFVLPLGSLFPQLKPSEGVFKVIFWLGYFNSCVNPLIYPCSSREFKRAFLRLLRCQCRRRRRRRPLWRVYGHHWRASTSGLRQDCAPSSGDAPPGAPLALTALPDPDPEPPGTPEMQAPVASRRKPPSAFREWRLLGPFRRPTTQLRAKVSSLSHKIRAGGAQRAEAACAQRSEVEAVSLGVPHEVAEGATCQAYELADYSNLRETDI
Put plainly: Radioligand binding, adrenergic α1D receptor ([3H]Prazosin). To be noted: 0.1 μM compound; HEK-293 cells; 0.6 nM [3H]Prazosin; read-out: Percentage inhibition of ligand binding, Adrenergic α1D. As for the experimental part: Compounds were incubated with 0.6 nM [3H]Prazosin for 60 min at 25° C. Non-specific binding was estimated in the presence of 10 μM phentolamine. Receptor proteins were filtered and washed, the filters were then counted to determine [3H]Prazosin specifically bound. Compounds were screened at 1 μM or lower, using 1% DMSO as vehicle. Biochemical assay results are presented as the percent inhibition of specific binding in Table 2.

For experiment [3], the target named is T3, human recombinant adrenergic α2A receptor (Homo sapiens, UniProt P08913).
T3 construct: expressed in transfected cells; host or cells: insect Sf9 cells
T3 sequence (P08913 1-465): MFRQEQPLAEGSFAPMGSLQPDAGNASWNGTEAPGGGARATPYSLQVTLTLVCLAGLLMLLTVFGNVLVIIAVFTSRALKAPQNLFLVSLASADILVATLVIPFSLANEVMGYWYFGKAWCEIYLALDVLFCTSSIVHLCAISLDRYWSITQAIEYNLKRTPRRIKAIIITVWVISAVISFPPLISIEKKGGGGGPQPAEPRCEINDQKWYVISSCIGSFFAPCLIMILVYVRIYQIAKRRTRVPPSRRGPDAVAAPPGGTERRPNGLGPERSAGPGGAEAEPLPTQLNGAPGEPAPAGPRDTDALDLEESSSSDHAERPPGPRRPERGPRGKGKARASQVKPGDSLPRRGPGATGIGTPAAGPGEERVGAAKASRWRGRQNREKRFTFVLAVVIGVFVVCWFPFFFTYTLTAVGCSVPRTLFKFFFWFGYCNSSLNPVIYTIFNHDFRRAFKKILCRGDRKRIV
Put plainly: Radioligand binding, adrenergic α2A receptor ([3H]MK-912). To be noted: 0.1 μM compound; Sf9 cells; 1 nM [3H]MK-912; read-out: Percentage inhibition of ligand binding, Adrenergic α2A. As for the experimental part:
To evaluate in radioligand binding assays the activity of compounds, human recombinant adrenergic α2A receptor expressed in insect Sf9 cells (Uhlen, S. et al, J. Pharmacol. Exp. Ther. 271:1558, 1994) in a modified Tris-HCl buffer (50 mM Tris-HCl, pH 7.4, 12.5 mM MgCl2, 2 mM EDTA) was used. Compounds were incubated with 1 nM [^3H]MK-912 for 60 min at 25° C. MK912 is (2S-trans)-1,3,4,5′,6,6′,7,12b-octahydro-1′,3′-dimethyl-spiro[2H-benzofuro[2,3-a]quinolizine-2,4′(1′H)-pyrimidin]-2′(3′H)-one hydrochloride Non-specific binding was estimated in the presence of 10 μM WB-4101 (2-(2,6-Dimethoxyphenoxyethyl)aminoethyl-1,4-benzodioxane hydrochloride). Receptor proteins were filtered and washed, the filters were then counted to determine [^3H]MK-912 specifically bound. Compounds were screened at 1 μM or lower, using 1% DMSO as vehicle. Compounds were tested in this biochemical assay and percent inhibition of specific binding was determined. Biochemical assay results are presented as the percent inhibition of specific binding in Table 2.

The target in experiment [4] is T4, human recombinant adrenergic α2B receptor (Homo sapiens, UniProt P18089).
T4 construct: expressed in transfected cells; host or cells: CHO-K1
T4 sequence (P18089 1-450): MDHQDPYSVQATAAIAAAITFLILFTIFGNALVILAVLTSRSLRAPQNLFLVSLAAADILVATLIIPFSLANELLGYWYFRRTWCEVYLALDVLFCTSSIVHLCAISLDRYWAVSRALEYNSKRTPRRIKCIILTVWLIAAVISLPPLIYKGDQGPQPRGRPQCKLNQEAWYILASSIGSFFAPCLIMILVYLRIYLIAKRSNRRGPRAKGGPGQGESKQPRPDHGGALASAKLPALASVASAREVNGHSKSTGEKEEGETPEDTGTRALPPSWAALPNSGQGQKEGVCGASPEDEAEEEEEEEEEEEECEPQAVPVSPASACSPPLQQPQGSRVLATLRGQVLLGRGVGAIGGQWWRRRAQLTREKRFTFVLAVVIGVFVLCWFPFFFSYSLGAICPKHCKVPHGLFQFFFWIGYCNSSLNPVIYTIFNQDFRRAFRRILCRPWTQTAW
In words: Radioligand binding, adrenergic α2B receptor ([3H]Rauwolscine). To be noted: 0.1 μM compound, CHO-K1 cells, read-out: Percentage inhibition of ligand binding, Adrenergic α2B. How it is done: To evaluate in radioligand binding assays the activity of compounds, human recombinant adrenergic α2B receptor expressed in Chinese hamster ovary (CHO) K1 cells (Uhlen, S. et al, Eur. J. Pharmacol. 343(1):93, 1998) in a modified Tris-HCl buffer (50 mM Tris-HCl, pH 7.4, 12.5 mM MgCl2, 1 mM EDTA, 0.2% BSA) was used. Compounds were incubated with 2.5 nM [^3H]Rauwolscine for 60 min at 25° C. Non-specific binding was estimated in the presence of 10 μM Prazosin. Receptor proteins were filtered and washed, the filters were then counted to determine [^3H]Rauwolscine specifically bound. Compounds were screened at 1 μM or lower, using 1% DMSO as vehicle. Compounds were tested in this biochemical assay and percent inhibition of specific binding was determined. Biochemical assay results are presented as the percent inhibition of specific binding in Table 2.

As for `Cc1ccc2c(c1)c1c(n2-c2ccoc2)CCN(C)C1` [Compound 15, 5-furan-3-yl-2,8-dimethyl-2,3,4,5-tetrahydro-1H-pyrido[4,3-b]indole], the inhibition at 0.1 µM in experiment [1] worked out at 35%; in experiment [2] it was 19%; in experiment [3], 10%; in experiment [4] it was 30%.
With `Cc1ccc2c(c1)c1c(n2-c2ccc(-c3cccc4ccccc34)cn2)CCN(C)C1` [Compound No. 141, 2,8-dimethyl-5-(5-(naphthalen-1-yl)pyridin-2-yl)-2,3,4,5-tetrahydro-1H-pyrido[4,3-b]indole], the inhibition at 0.1 µM in experiment [1] was determined as 62%; in experiment [2], 50%; in experiment [3], 69%; in experiment [4], 82%.
The matching figures for `Cc1ccc2c(c1)c1c(n2-c2ccsc2)CCN(C)C1` [Compound 14, 2,8-dimethyl-5-thiophen-3-yl-2,3,4,5-tetrahydro-1H-pyrido[4,3-b]indole]: 38%, 20%, 23% and 51%.
The matching figures for `Cc1ccc2c(c1)c1c(n2-c2cccc(-c3ccc(O)nc3)c2)CCN(C)C1` [Compound 52, 5-(3-(2,8-dimethyl-3,4-dihydro-1H-pyrido[4,3-b]indol-5(2H)-yl)phenyl)pyridin-2-ol]: 6%, -3%, 43% and 36%.
The matching figures for `Cc1ccc2c(c1)c1c(n2-c2ccc3cnccc3c2)CCN(C)C1` [Compound 38]: 31%, 32%, 32% and 57%.
With `Cc1ccc2c(c1)c1c(n2-c2cscc2-c2ccnn2C)CCN(C)C1` [Compound No. 150], the inhibition at 0.1 µM came to 72% in experiment [1], 73% in experiment [2], 55% in experiment [3] and 77% in experiment [4].
On the same counts, the results for `Cc1ccc2c(c1)c1c(n2-c2ccc3nc(C)ccc3c2)CCN(C)C1` [Compound No. 157, 2,8-dimethyl-5-(2-methyl-quinolin-6-yl)-2,3,4,5-tetrahydro-1H-pyrido[4,3-b]indole] are 22%, 13%, 8% and 60%.
Take `Cc1ccc2c(c1)c1c(n2-c2cscc2-c2cccc3[nH]ncc23)CCN(C)C1` [Compound 41]: the inhibition at 0.1 µM in experiment [1] stood at 77%; in experiment [2], 76%; in experiment [3], 87%; in experiment [4], 70%.
On to `CC(=O)Nc1ccc(-c2cscc2-n2c3c(c4cc(C)ccc42)CN(C)CC3)cn1` [Compound 56], for which the inhibition at 0.1 µM in experiment [1] was 36%; in experiment [2], 65%; in experiment [3], 4%; in experiment [4] it was 90%.
With `Cc1ccc2c(c1)c1c(n2-c2ccccc2-c2cnc(N(C)C)nc2)CCN(C)C1` [Compound 31], the inhibition at 0.1 µM worked out at 36% in experiment [1], 80% in experiment [2], 74% in experiment [3] and 67% in experiment [4].
In the case of `Cc1cc(C)c2c(c1)c1c(n2-c2ccc3ncccc3c2)CCN(C)C1` [Compound 48], the inhibition at 0.1 µM in experiment [1] was 1%; in experiment [2] it was -5%; in experiment [3], 19%; in experiment [4], 16%.
The matching figures for `Cc1ccc2c(c1)c1c(n2-c2ccccc2-c2cnn(C)c2)CCN(C)C1` [Compound No. 86, 2,8-dimethyl-5-(2-(1-methyl-1H-pyrazol-4-yl)phenyl)-2,3,4,5-tetrahydro-1H-pyrido[4,3-b]indole]: 26%, 22%, 33% and 67%.

One may read the inhibition as the relative decrease from the control value, in per cent.

The values above are taken from patent US20140155384A1, “COMPOUNDS AND METHODS OF TREATING DIABETES” (Medivation Technologies, Inc., priority 2011, published 2014).
